# Marks after values point to notes of the source that are not given here.
# How the values were obtained:
# [1] = test system: mice with type II diabetes (STZ injection plus high-glucose-high-fat diet); experiment: Type II diabetes mouse model: TC, TG, HDL-C, LDL-C; assay type: in vivo, Kunming strain mice; conditions: diabetic mice, gavage once daily, four weeks
# Excerpt: Fifty mice were pregrouped and labeled. In the experiment, type II diabetes models were established by streptozotocin (STZ) injection plus induction by high-glucose-high-fat diet. […] The mice were randomized into five groups of 10 animals: normal group, diabetic control group, glimepiride group, RS group, and modified starch+GSPAs group; before modeling, the mice were weighed. […] The normal group was fed with normal diet for three weeks, while the remaining four groups were fed with high-glucose-high-fat diet for three weeks; then, the animals were deprived of food hut not water for 12 h; […] (which was prepared with 0.1 mol/L citric acid-sodium citrate buffer solution [pH 4.4 (4.2-4.5)] at a low temperature) was prepared when needed, and was injected intraperitoneally at a single dose of 50 mg/kg (0.5 mg/10 g) of body weight within 30 min; the mice in the normal group were given isodose citric acid-sodium citrate buffer solution and injected at a dose of 50 mg/kg every three days, during which the mice were fed with high-glucose-high-fat diet. After 72 h, the mice were deprived of food but not water for 12 h, and blood was collected from the tail vein to test the fasting blood glucose (FBG); the mice with FBG≥12 mmol/1, with obesity and polyuria were considered as the criteria for successful modeling. Ten normal and healthy mice were assigned to the normal group; the remaining successful modeled mice with type II diabetes were grouped into four groups of 10 animals according to the blood glucose level; the test period was four weeks. Specific groups are listed in Table 2: bw represents body weight. [table] Instructions for gavage dosing: The mice were administered by gavage once daily, in a volume of 0.4 mL. Also, total cholesterol (TC), triglyceride (TG), and low density lipoprotein cholesterol (LDL-C) were tested for diabetic mice, as shown in Table 3.
# [2] = test system: mice with type II diabetes (STZ injection plus high-glucose-high-fat diet); experiment: Type II diabetes mouse model: HE staining of liver sections; assay type: in vivo, Kunming strain mice; conditions: diabetic mice, intervention groups (FIGS. 9 to 13)
# Excerpt: Fifty mice were pregrouped and labeled. In the experiment, type II diabetes models were established by streptozotocin (STZ) injection plus induction by high-glucose-high-fat diet. […] The mice were randomized into five groups of 10 animals: normal group, diabetic control group, glimepiride group, RS group, and modified starch+GSPAs group; before modeling, the mice were weighed.
# The normal group was fed with normal diet for three weeks, while the remaining four groups were fed with high-glucose-high-fat diet for three weeks; then, the animals were deprived of food hut not water for 12 h; […] (which was prepared with 0.1 mol/L citric acid-sodium citrate buffer solution [pH 4.4 (4.2-4.5)] at a low temperature) was prepared when needed, and was injected intraperitoneally at a single dose of 50 mg/kg (0.5 mg/10 g) of body weight within 30 min; the mice in the normal group were given isodose citric acid-sodium citrate buffer solution and injected at a dose of 50 mg/kg every three days, during which the mice were fed with high-glucose-high-fat diet. After 72 h, the mice were deprived of food but not water for 12 h, and blood was collected from the tail vein to test the fasting blood glucose (FBG); the mice with FBG≥12 mmol/1, with obesity and polyuria were considered as the criteria for successful modeling. […]
compound,measurement,setting,value
"CCC1=C(C)CN(C(=O)NCCc2ccc(S(=O)(=O)NC(=O)N[C@H]3CC[C@H](C)CC3)cc2)C1=O [Glimepiride, glimepiride]",High density lipid cholesterol (HDL-C),[1],2.26 ± 0.31^a mmol/L
same,LDL-C,[1],0.65 ± 0.17^b mmol/L
same,TC,[1],3.16 ± 0.37^b mmol/L
same,TG,[1],1.06 ± 0.09^b mmol/L
same,HE staining of liver sections,[2],improve symptoms of disordered liver cells and massive inflammatory cell infiltration
